Legend:
Test in all cases: relative viability (nuclei count vs DMSO), 5 days (fraction); higher = more cells survive
Sulindac + Pemetrexed = compound: CC1=C(CC(=O)O)c2cc(F)ccc2/C1=C\c1ccc([S+](C)[O-])cc1 [Sulindac] + Nc1nc2[nH]cc(CCc3ccc(C(=O)N[C@@H](CCC(=O)O)C(=O)O)cc3)c2c(=O)[nH]1 [Pemetrexed] (partner 0.2 µM)
Summary of the method: (§1)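 Lung cancer cell lines in 1536-well plates were dosed by pin tool the day after seeding, either with one drug alone or with a fixed anchor-drug dose plus five library-drug doses (not always all listed) in √10 steps. After 5 days, cells were fixed and their nuclei stained in one step (final 0.05% Triton X-100, 1% formaldehyde, 1 ug/ml Hoechst), then counted on 4× images. Relative viability is the nuclei count in treated wells divided by that in vehicle wells. Values are medians of duplicate plates.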

[1] = compound: CN[C@@H]1C[C@H]2O[C@@](C)([C@@H]1OC)n1c3ccccc3c3c4c(c5c6ccccc6n2c5c31)C(=O)NC4 [Staurosporine] + COc1cc2c(Oc3ccc(NC(=O)C4(C(=O)Nc5ccc(F)cc5)CC4)cc3F)ccnc2cc1OCCCN1CCOCC1 [Foretinib] (partner 0.25 µM)
Summary of the method: as §1

[2] = compound: CN[C@@H]1C[C@H]2O[C@@](C)([C@@H]1OC)n1c3ccccc3c3c4c(c5c6ccccc6n2c5c31)C(=O)NC4 [Staurosporine] + CS(=O)(=O)N1CCN(Cc2cc3nc(-c4cccc5[nH]ncc45)nc(N4CCOCC4)c3s2)CC1 [Pictilisib] (partner 1 µM)
Summary of the method: as §1

[3] = compound: O=c1[nH]cc(F)c(=O)[nH]1 [5-Fluorouracil] + Cc1nc(NC(=O)N2CCC[C@H]2C(N)=O)sc1-c1ccnc(C(C)(C)C(F)(F)F)c1 [Alpelisib] (partner 2 µM)
Summary of the method: as §1

| Cell Line | relative viability (Sulindac + Pemetrexed; first compound 0.08 µM) | relative viability (Sulindac + Pemetrexed; first compound 0.253 µM) | relative viability (Sulindac + Pemetrexed; first compound 0.8 µM) | relative viability (Sulindac + Pemetrexed; first compound 2.53 µM) | relative viability (Sulindac + Pemetrexed; first compound 8 µM) | relative viability ([1]; first compound 0.005 µM) | relative viability ([1]; first compound 0.05 µM) | relative viability ([1]; first compound 0.1581 µM) | relative viability ([1]; first compound 0.5 µM) | relative viability ([2]; first compound 0.005 µM) | relative viability ([2]; first compound 0.01581 µM) | relative viability ([2]; first compound 0.1581 µM) | relative viability ([2]; first compound 0.5 µM) | relative viability ([3]; first compound 0.02 µM) | relative viability ([3]; first compound 0.2 µM) | relative viability ([3]; first compound 0.6325 µM) | relative viability ([3]; first compound 2 µM) | relative viability ([1]; first compound 0.01581 µM) | relative viability ([2]; first compound 0.05 µM) |
| --- | --- | --- | --- | --- | --- | --- | --- | --- | --- | --- | --- | --- | --- | --- | --- | --- | --- | --- | --- |
| NCI-H23 | 0.768 | 0.683 | 0.237 | 0.7 | 0.692 | 0.898 | 0.43 | 0.258 | 0.387 | 0.319 | 0.114 | 0.162 | 0.113 | 0.687 | 0.728 | 0.425 | 0.312 |  |  |
| NCI-H322M | 0.646 | 0.642 | 0.597 | 0.552 | 0.666 | 0.95 | 0.536 | 0.357 | 0.288 | 0.683 | 0.384 | 0.309 | 0.252 | 0.772 | 0.785 | 0.609 | 0.5 | 0.759 | 0.312 |
| NCI-H358 | 0.183 | 0.157 | 0.17 | 0.151 | 0.182 | 0.835 | 0.11 | 0.0647 | 0.0577 | 0.317 | 0.261 | 0.141 | 0.139 | 0.935 | 0.817 | 1.04 | 0.434 | 0.241 | 0.162 |
| NCI-H441 | 0.251 | 0.255 | 0.286 | 0.244 | 0.253 | 0.822 | 0.354 | 0.215 | 0.194 | 0.426 | 0.152 | 0.155 | 0.12 | 0.792 | 0.644 | 0.563 | 0.411 | 0.503 | 0.178 |
| NCI-H460 | 0.0577 | 0.0612 | 0.0559 | 0.0599 | 0.0635 | 0.972 | 0.755 | 0.161 | 0.013 | 0.316 |  | 0.0535 | 0.0424 | 0.389 | 0.345 | 0.136 | 0.0626 | 0.85 | 0.228 |
| NCI-H520 | 0.893 | 0.613 | 0.488 | 0.642 | 0.813 | 0.692 | 0.548 | 0.409 | 0.18 | 0.484 | 0.206 | 0.178 | 0.159 | 0.537 | 0.975 | 0.717 | 0.383 | 0.759 | 0.39 |
| NCI-H596 | 0.441 | 0.433 |  | 0.445 | 0.544 | 1.32 | 0.587 | 0.297 | 0.305 | 0.407 | 0.222 | 0.129 | 0.105 | 0.357 | 0.449 | 0.497 | 0.381 | 0.839 | 0.198 |
| NCI-H647 | 0.212 | 0.165 | 0.169 | 0.182 | 0.208 | 0.886 | 0.535 | 0.143 | 0.0766 | 0.292 | 0.125 | 0.118 | 0.0831 | 0.897 | 0.915 | 1.06 | 0.767 | 0.709 | 0.148 |
| NCI-H650 | 1 | 0.88 | 0.845 | 0.932 | 1.09 | 0.687 | 0.257 | 0.289 | 0.256 | 0.416 | 0.297 | 0.24 | 0.233 | 0.915 | 0.644 | 0.523 | 0.397 | 0.273 | 0.344 |
| NCI-H661 | 0.953 | 0.931 | 0.869 | 0.922 | 0.981 | 1.13 | 0.481 | 0.27 | 0.216 | 0.345 | 0.265 | 0.245 | 0.271 | 0.598 | 1.12 | 0.597 | 0.612 | 0.571 | 0.277 |
| NCI-H838 | 0.248 | 0.255 | 0.233 | 0.24 | 0.258 | 0.51 | 0.208 | 0.185 | 0.0995 | 0.19 | 0.151 | 0.144 | 0.126 | 0.874 | 0.882 | 0.484 | 0.29 | 0.228 | 0.172 |
| NCI-H1355 | 1.02 | 1.05 | 0.965 | 1.02 | 1.13 | 0.963 | 0.468 | 0.221 | 0.221 | 0.277 | 0.157 | 0.153 | 0.152 | 0.716 | 0.551 | 0.372 | 0.286 | 0.415 | 0.215 |
| NCI-H1395 | 0.931 | 1.02 | 0.828 | 0.855 | 1.12 | 0.943 | 0.453 | 0.416 | 0.27 | 0.535 | 0.315 | 0.366 | 0.394 | 1.1 | 1.02 | 1.14 | 0.844 | 0.812 | 0.475 |
| NCI-H1437 | 0.375 | 0.321 | 0.326 | 0.315 | 0.413 | 1.13 | 0.854 | 0.58 | 0.169 | 0.449 | 0.25 | 0.108 | 0.0658 |  | 0.226 | 0.171 | 0.111 |  | 0.249 |
| NCI-H1563 | 0.736 | 0.748 | 0.683 | 0.758 | 0.945 | 0.696 | 0.575 | 0.611 | 0.463 | 0.749 | 0.594 | 0.498 | 0.433 | 0.772 | 0.931 | 0.821 | 0.841 | 0.612 | 0.577 |
| NCI-H1651 | 0.766 | 0.626 | 0.581 | 0.569 | 0.613 | 0.74 | 0.346 | 0.259 | 0.0644 | 0.438 | 0.334 | 0.097 | 0.089 | 1.01 | 0.672 | 0.552 | 0.504 | 0.615 | 0.239 |
| NCI-H1666 | 0.924 | 0.852 | 0.818 | 0.858 | 0.878 | 0.668 | 0.545 | 0.391 | 0.359 | 0.374 | 0.267 | 0.176 | 0.149 | 0.823 | 0.442 | 0.35 | 0.306 | 0.513 | 0.322 |
| NCI-H1734 | 0.477 | 0.421 | 0.439 | 0.44 | 0.452 | 0.577 | 0.317 | 0.137 | 0.156 | 0.317 | 0.175 | 0.105 | 0.0965 | 0.559 | 0.756 | 0.582 | 0.529 | 0.453 | 0.174 |
| NCI-H1755 | 0.421 | 0.448 | 0.631 | 0.444 | 0.462 | 0.729 | 0.261 | 0.189 | 0.164 | 0.135 | 0.139 | 0.138 | 0.154 | 0.896 | 0.74 | 0.294 | 0.259 | 0.471 | 0.155 |
| NCI-H1793 | 0.957 | 0.824 |  | 1.13 | 1.14 | 0.784 | 0.474 | 0.217 | 0.353 | 0.534 | 0.248 | 0.191 |  | 0.673 | 0.658 | 0.543 | 0.493 |  | 0.277 |
| NCI-H1915 | 0.602 | 0.53 | 0.492 | 0.475 | 0.53 |  | 0.552 | 0.283 | 0.278 | 0.719 |  |  | 0.0773 | 1.04 | 1.04 | 0.963 | 0.83 | 0.542 | 0.35 |
| NCI-H1944 | 0.701 | 0.636 | 0.412 | 0.582 | 0.722 | 0.756 | 0.431 | 0.39 | 0.251 | 0.295 |  | 0.231 | 0.184 | 0.804 | 0.763 | 0.351 | 0.211 |  | 0.26 |
| NCI-H1975 | 0.316 | 0.297 | 0.245 | 0.304 | 0.313 | 0.4 | 0.21 | 0.104 | 0.0901 | 0.209 | 0.14 | 0.103 | 0.11 | 0.57 | 0.723 | 0.465 | 0.293 | 0.349 | 0.156 |
| NCI-H1993 | 0.704 | 0.575 | 0.648 | 0.638 | 0.551 | 0.818 | 0.586 | 0.535 | 0.489 | 0.869 | 0.646 | 0.526 | 0.565 | 0.687 | 0.569 | 0.608 | 0.698 | 0.701 | 0.66 |
| NCI-H2009 | 1.07 | 1.02 | 1.03 | 1.01 | 1.25 | 0.527 | 0.212 | 0.177 | 0.127 | 0.195 | 0.146 | 0.115 | 0.0836 | 1.17 | 1.15 | 0.937 | 0.607 | 0.389 | 0.182 |
| NCI-H2023 | 0.267 | 0.226 | 0.186 | 0.196 | 0.244 | 0.526 | 0.174 | 0.107 | 0.0611 | 0.134 | 0.106 | 0.0886 | 0.0609 | 0.456 | 0.256 | 0.124 | 0.0987 |  | 0.11 |
| NCI-H2085 | 0.921 | 0.903 | 0.766 | 0.898 | 0.897 | 0.516 | 0.324 | 0.195 | 0.26 | 0.369 | 0.261 | 0.351 | 0.226 | 0.689 | 1.03 | 0.828 | 0.613 | 0.437 | 0.282 |
| NCI-H2087 | 0.748 | 0.666 | 0.741 | 0.658 | 0.685 | 0.863 | 0.252 | 0.112 | 0.0962 | 0.833 | 0.435 | 0.165 | 0.138 | 0.977 | 0.923 | 0.659 | 0.536 | 0.561 | 0.313 |
